Results as given in patent US12678453B2, “Aerosolized formulations of HIV protease inhibitors for the treatment of airway reflux” (The Medical College of Wisconsin, Inc., priority 2020, dated 2026).
“Also recorded” adds a separate entry of the source.

Legend:
porcine pepsin [1] = target: T1, porcine pepsin (Sus scrofa, UniProt P00791); assay: competitive binding assay (fluorescence polarization, pepstatin-Alexa647 probe); conditions: 100 nM pepstatin-Alexa647, 0.03U/ul pepsin, 37.5% DMSO; FIG. 3A
T1 construct: purchased Worthington (Lakewood, NJ)
T1 sequence (P00791 60-385): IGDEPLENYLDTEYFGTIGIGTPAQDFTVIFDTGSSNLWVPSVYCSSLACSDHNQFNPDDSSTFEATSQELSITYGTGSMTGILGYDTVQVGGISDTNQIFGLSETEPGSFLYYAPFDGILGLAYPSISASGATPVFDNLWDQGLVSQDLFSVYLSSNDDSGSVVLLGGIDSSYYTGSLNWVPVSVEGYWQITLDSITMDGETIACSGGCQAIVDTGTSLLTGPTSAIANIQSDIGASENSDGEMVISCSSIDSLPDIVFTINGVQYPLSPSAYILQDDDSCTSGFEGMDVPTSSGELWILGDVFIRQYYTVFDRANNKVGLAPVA
Text: (§1) Fluorescent polarization assays were developed to test compound binding and inhibition of pepsin (FIG. 1). A competitive binding assay was developed using pepstatin, a known inhibitor of pepsin with subnanomolar affinity^91 (Roberts 2003). This binding assay measures the relative binding affinity but not the enzymatic inhibition of compounds. Thus, a separate peptic activity assay was developed, which uses fluorescently labelled alpha casein as substrate. Both assays are based on the principle of fluorescence polarization (FP), which holds that as the molecular size of a fluorescent species is altered through dissociation/breakdown or association/binding events, the degree of depolarization of plane polarized light changes accordingly, directly affecting the FP value.^92 (Lea 2011). In the assays used herein, millipolarization (mP) decreases as casein-Alexa647 is degraded by pepsin and increases with binding of pepsin to pepstatin-Alexa647.
(§2) Assays were performed in 20 ul volumes in 384-well black optical plates (Nunc, Roskilde, DK). Pepstatin dose response curves were used to optimize pepsin/inhibitor concentrations and assay incubation times. Dose response was performed using 0.3-1000 uM unlabeled pepstatin with 100-500 nM pepstatin-Alexa647 probe, 0.003-3U/μl porcine pepsin (Worthington, Lakewood, NJ), and 10-37% dimethyl sulfoxide (HIV protease inhibitor diluent) in 0.1M HCl, pH1+0.01% Tween-20. Reagents were combined (with pepsin added last) in 50% of the final reaction volume for mixing and immediately read on a BioTek Cytation (BioTek Instruments, Winooski, VT) with far-red FP filter cube at excitation/emission of […] for five minutes, in at least triplicate. Averaged polarization values of replicate reads were plotted against probe or labeled pepstatin concentrations in GraphPad Prism 8 (La Jolla, CA). Reagent concentrations yielding greatest dynamic range were selected for the assay. The peptic activity assay was optimized similarly using casein-Alexa647 probe in 0.1M HCl, pH1+0.01% Tween-20. Reagents were combined (adding pepsin last) and read immediately at minimal intervals (<2 minutes apart) over 30 minutes. The assay was performed in triplicate and mean polarization value was plotted over time.
HIV protease inhibitors were dissolved in DMSO. Amprenavir, ritonavir, lopinavir, saquinavir mesylate, nelfinavir mesylate hydrate, darunavir ethanolate, indinavir sulfate salt hydrate were obtained from Sigma-Aldrich. […] Half-maximal inhibitory concentration (IC50) were calculated from kinetic traces analyzed using an online tool (icekat.herokuapp.com/icekat, O1p 2019^95). Percent bound and percent activity were calculated by normalization to the measured polarization value without HIV protease inhibitor compound. […]

porcine pepsin [2] = target: T1, porcine pepsin; assay: peptic activity assay (fluorescence polarization, casein-Alexa647 substrate); assay type: biochemical; conditions: for inhibition of pepsin activity: 200 nM casein-Alexa647, 0.01 U/μL pepsin, 5% DMSO, FIG. 3B; for IC50 for pepsin: bind to and inhibit pepsin, numbers only in FIG. 3
Text: as §1
Casein was labeled as described by Jolley (1996)^93 using a 2.5 ug/mg label to protein ratio. Specifically, 200 ul 10 mg/ml bovine alpha casein (C6780 Sigma Aldrich, St. Louis, MO) in 0.1M sodium bicarbonate was incubated with 5 ul 1 mg/ml Alexa Fluor 647 Carboxylic Acid, Succinimidyl Ester (in DMSO; A-20106 ThermoFisher Scientific, Waltham, MA) for 15 minutes at room temperature. The mixture was applied to a Sephadex G-25 column (90×5 mm) in a glass Pasteur pipette. Elution was performing using D-PBS pH7.4 (ThermoFisher Scientific) containing 0.1% sodium azide. The fast-moving band containing casein-bound fluorophore was collected in a volume of approximately 0.4 ml. Concentration of resultant probe (casein-Alexa647 in PBS-azide) was estimated via spectrophotometry using Beer's law (Implen Nanophotometer, Implen, Inc. Westlake Village, CA). Probe was aliquoted and stored at −20° C. until use.
as §2
HIV protease inhibitors were dissolved in DMSO. […] Compounds were tested under optimized assay conditions over a range of three logs concentration in triplicate and plotted using GraphPad Prism 8. Half-maximal inhibitory concentration (IC50) were calculated from kinetic traces analyzed using an online tool (icekat.herokuapp.com/icekat, O1p 2019^95). Percent bound and percent activity were calculated by normalization to the measured polarization value without HIV protease inhibitor compound.
Our team developed and optimized two high-throughput screening (HTS) assays to identify compounds that are specific and sensitive inhibitors of pepsin (FIG. 1). The first assay is a binding assay that measures the ability of a compound to compete with fluorescently labeled pepstatin for its binding site on pepsin.

[3] = known clinical profile; cited from earlier work

| competitive binding to pepsin (porcine pepsin [1]) | inhibition of pepsin activity (porcine pepsin [2]) | IC50 for pepsin (porcine pepsin [2]) | SMILES | side effects / tolerability [3] |
| --- | --- | --- | --- | --- |
| competitive binding to pepsin | inhibition of pepsin activity | low micromolar range | CC(C)CN(C[C@@H](O)[C@H](Cc1ccccc1)NC(=O)O[C@H]1CCOC1)S(=O)(=O)c1ccc(N)cc1 [amprenavir, [(3S)-oxolan-3-yl] N-[(2S,3R)-4-[(4-aminophenyl)sulfonyl-(2-methylpropyl)amino]-3-hydroxy-1-phenylbutan-2-yl]carbamate] | minimal side effects such as diarrhea, nausea and vomiting |
| competitive binding to pepsin | inhibition of pepsin activity | – | CC(C)c1nc(CN(C)C(=O)N[C@H](C(=O)N[C@@H](Cc2ccccc2)C[C@H](O)[C@H](Cc2ccccc2)NC(=O)OCc2cncs2)C(C)C)cs1 [ritonavir, 1,3-thiazol-5-ylmethyl N-[(2S,3 S,5S)-3-hydroxy-5-[[(2S)-3-methyl-2-[[methyl-[(2-propan-2-yl-1,3-thiazol-4-yl)methyl]carbamoyl]amino]butanoyl]amino]-1,6-diphenylhexan-2-yl]carbamate] | minimal side effects such as diarrhea, nausea and vomiting |
| competitive binding to pepsin | inhibition of pepsin activity | low micromolar range | CC(C)(C)NC(=O)[C@@H]1C[C@@H]2CCCC[C@@H]2CN1C[C@@H](O)[C@H](Cc1ccccc1)NC(=O)[C@H](CC(N)=O)NC(=O)c1ccc2ccccc2n1 [saquinavir, (2S)—N-[(2S,3R)-4-[(3 S,4aS,8aS)-3-(tert-butylcarbamoyl)-3,4,4a,5,6,7,8,8a-octahydro-1H-isoquinolin-2-yl]-3-hydroxy-1-phenylbutan-2-yl]-2-(quinoline-2-carbonylamino)butanediamide] | can cause QT prolongation, heart block, high blood lipids, and liver problems |

| SMILES | competitive binding to pepsin (porcine pepsin [1]) | inhibition of pepsin activity (porcine pepsin [2]) | IC50 for pepsin (porcine pepsin [2]) | side effects / tolerability [3] |
| --- | --- | --- | --- | --- |
| CC(C)CN(C[C@@H](O)[C@H](Cc1ccccc1)NC(=O)O[C@H]1CO[C@H]2OCC[C@H]21)S(=O)(=O)c1ccc(N)cc1 [darunavir, [(3a S,4R,6aR)-2,3,3a,4,5,6a-hexahydrofuro[2,3-b]furan-4-yl] N-[(2S,3R)-4-[(4-aminophenyl)sulfonyl-(2-methylpropyl)amino]-3-hydroxy-1-phenylbutan-2-yl]carbamate] | competitive binding to pepsin | inhibition of pepsin activity | low micromolar range; also recorded: lowest IC50 | – |
